The record followed here is publication PMC7252619 (PLoS ONE, 2020).

SMILES strings stand for the structures. Like-named read-outs stand apart in the source and are kept apart here.

The target of one assay is VEGFR2 (Homo sapiens, UniProt P35968). The assay is described as follows: Kinase activity test (ReactionBiology), % enzyme activity relative to DMSO. The class given is biochemical. Further details: purchased ReactionBiology. Conditions: VEGFR2.
The target in a further assay is T1, CK1d (Homo sapiens, UniProt P48730).
T1 construct: purchased ReactionBiology
Described as above. Conditions: CK1d. The class given is biochemical.

Setting [1] is: 1 uM, Average, read-out: % Enzyme Activity (relative to DMSO controls), Average.
[2] abbreviates: 1 uM, replicate Data 1, read-out: % Enzyme Activity (relative to DMSO controls), Data 1.
Setting [3] is: 1 uM, replicate Data 2, read-out: % Enzyme Activity (relative to DMSO controls), Data 2.
Where [4] appears, read: 10 uM, Average, read-out: % Enzyme Activity (relative to DMSO controls), Average.
The mark [5] stands for this setting: 10 uM, replicate Data 1, read-out: % Enzyme Activity (relative to DMSO controls), Data 1.
The mark [6] stands for this setting: 10 uM, replicate Data 2, read-out: % Enzyme Activity (relative to DMSO controls), Data 2.

VEGFR2, sequence (P35968 20-1356): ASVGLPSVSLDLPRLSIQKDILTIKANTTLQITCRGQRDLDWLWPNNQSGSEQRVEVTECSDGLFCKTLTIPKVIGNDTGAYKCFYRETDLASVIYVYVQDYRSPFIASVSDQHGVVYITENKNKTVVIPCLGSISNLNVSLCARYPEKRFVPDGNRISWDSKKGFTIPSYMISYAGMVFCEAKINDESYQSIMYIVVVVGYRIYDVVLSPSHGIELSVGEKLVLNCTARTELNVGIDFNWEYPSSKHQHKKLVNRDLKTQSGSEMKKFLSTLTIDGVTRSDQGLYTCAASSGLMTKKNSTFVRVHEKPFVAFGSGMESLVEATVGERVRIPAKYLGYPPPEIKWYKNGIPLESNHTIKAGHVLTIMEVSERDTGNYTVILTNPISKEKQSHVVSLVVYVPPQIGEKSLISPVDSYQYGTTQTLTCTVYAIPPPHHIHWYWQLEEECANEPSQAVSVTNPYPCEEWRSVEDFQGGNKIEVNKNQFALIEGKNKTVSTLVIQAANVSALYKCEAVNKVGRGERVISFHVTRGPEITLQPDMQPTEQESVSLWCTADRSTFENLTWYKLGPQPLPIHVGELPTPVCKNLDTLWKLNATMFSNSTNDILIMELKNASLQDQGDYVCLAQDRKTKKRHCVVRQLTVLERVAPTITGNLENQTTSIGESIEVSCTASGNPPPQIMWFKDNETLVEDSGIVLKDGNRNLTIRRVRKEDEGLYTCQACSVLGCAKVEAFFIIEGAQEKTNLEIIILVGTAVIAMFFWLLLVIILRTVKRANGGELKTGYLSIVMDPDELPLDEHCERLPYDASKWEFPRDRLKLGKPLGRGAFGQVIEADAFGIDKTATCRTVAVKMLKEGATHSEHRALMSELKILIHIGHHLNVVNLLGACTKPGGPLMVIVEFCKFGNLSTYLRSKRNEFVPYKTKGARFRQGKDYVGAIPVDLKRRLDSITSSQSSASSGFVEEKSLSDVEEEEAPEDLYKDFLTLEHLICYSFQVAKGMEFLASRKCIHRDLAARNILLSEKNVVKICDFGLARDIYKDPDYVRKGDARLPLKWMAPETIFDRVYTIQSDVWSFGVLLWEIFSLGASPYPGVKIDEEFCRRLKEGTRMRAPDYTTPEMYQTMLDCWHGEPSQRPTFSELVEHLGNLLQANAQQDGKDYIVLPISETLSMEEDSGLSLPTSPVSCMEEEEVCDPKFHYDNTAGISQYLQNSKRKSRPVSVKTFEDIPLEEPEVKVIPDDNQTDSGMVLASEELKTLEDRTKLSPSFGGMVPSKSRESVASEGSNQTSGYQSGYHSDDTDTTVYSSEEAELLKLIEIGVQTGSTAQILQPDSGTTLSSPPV
T1 sequence (P48730 whole entry): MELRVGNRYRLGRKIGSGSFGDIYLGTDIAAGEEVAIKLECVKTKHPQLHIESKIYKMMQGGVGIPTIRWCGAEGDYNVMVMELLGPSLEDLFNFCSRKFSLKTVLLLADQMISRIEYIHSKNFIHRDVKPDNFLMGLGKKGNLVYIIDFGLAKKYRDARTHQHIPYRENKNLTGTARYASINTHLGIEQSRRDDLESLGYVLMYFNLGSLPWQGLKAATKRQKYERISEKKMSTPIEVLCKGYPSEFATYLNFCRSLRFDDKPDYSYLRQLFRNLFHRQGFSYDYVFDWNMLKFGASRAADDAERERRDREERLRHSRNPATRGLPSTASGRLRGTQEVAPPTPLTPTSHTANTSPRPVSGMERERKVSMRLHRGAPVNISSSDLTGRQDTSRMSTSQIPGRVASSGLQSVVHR

As for `Cn1c(=O)cc(N2CCC[C@@H](N)C2)n(Cc2ccccc2C#N)c1=O` [Alogliptin], the “% Enzyme Activity (relative to DMSO controls), Average” value is on record as 110.86% at VEGFR2 (1 uM, Average) and 104.24% on VEGFR2 (10 uM, Average). In addition, the “% Enzyme Activity (relative to DMSO controls), Data 1” value on VEGFR2 (1 uM, replicate Data 1) is 108.92%; at VEGFR2 (10 uM, replicate Data 1), 106.32%. The “% Enzyme Activity (relative to DMSO controls), Data 2” value at VEGFR2 (1 uM, replicate Data 2) is reported as 112.79%; at VEGFR2 (10 uM, replicate Data 2), 102.16%.

Take `CCCCC[C@H](O)/C=C/[C@H]1[C@H](O)CC(=O)[C@@H]1CCCCCCC(=O)O` [Alprostadil]: the “% Enzyme Activity (relative to DMSO controls), Average” value stood at 100.17% at CK1d (1 uM, Average) and 106.64% on CK1d (10 uM, Average). Moreover, the “% Enzyme Activity (relative to DMSO controls), Data 1” value at CK1d (1 uM, replicate Data 1) stood at 100.59%; at CK1d (10 uM, replicate Data 1), 108.06%. For the same compound, the “% Enzyme Activity (relative to DMSO controls), Data 2” value at CK1d (1 uM, replicate Data 2) turned out to be 99.74%; at CK1d (10 uM, replicate Data 2), 105.21%.

Regarding `CC1(C)S[C@@H]2[C@H](NC(=O)[C@H](N)c3ccccc3)C(=O)N2[C@H]1C(=O)O` [Ampicillin], the “% Enzyme Activity (relative to DMSO controls), Average” value on VEGFR2 (1 uM, Average) was 99.13%; on VEGFR2 (10 uM, Average) it was 96.01%. Moreover, the “% Enzyme Activity (relative to DMSO controls), Data 1” value at VEGFR2 (1 uM, replicate Data 1) is reported as 103.06%; on VEGFR2 (10 uM, replicate Data 1), 95.11%. Moreover, the “% Enzyme Activity (relative to DMSO controls), Data 2” value on VEGFR2 (1 uM, replicate Data 2) is given as 95.2%; on VEGFR2 (10 uM, replicate Data 2), 96.91%.

Regarding `CC(C)CN(C[C@@H](O)[C@H](Cc1ccccc1)NC(=O)O[C@H]1CCOC1)S(=O)(=O)c1ccc(N)cc1` [Amprenavir], the “% Enzyme Activity (relative to DMSO controls), Average” value on CK1d (1 uM, Average) was 107.55%.

With `CC(C)(Oc1ccc(CCNC(=O)c2ccc(Cl)cc2)cc1)C(=O)O` [Bezafibrate], the “% Enzyme Activity (relative to DMSO controls), Average” value at VEGFR2 (1 uM, Average) is given as 106.10%; at VEGFR2 (10 uM, Average) it was 106.53%. The “% Enzyme Activity (relative to DMSO controls), Data 1” value at VEGFR2 (1 uM, replicate Data 1) turned out to be 100.57%; on VEGFR2 (10 uM, replicate Data 1), 106.16%. In addition, the “% Enzyme Activity (relative to DMSO controls), Data 2” value at VEGFR2 (1 uM, replicate Data 2) is listed as 111.63%; at VEGFR2 (10 uM, replicate Data 2), 106.89%.

On to `CC(C)Nc1cccnc1N1CCN(C(=O)c2cc3cc(NS(C)(=O)=O)ccc3[nH]2)CC1` [Delavirdine], for which the “% Enzyme Activity (relative to DMSO controls), Average” value on CK1d (10 uM, Average) stood at 101.06%.

Consider `CNCCCN1c2ccccc2CCc2ccccc21` [Desipramine], for which the “% Enzyme Activity (relative to DMSO controls), Average” value is 133.63% at CK1d (10 uM, Average); 96.96% at VEGFR2 (1 uM, Average); 89.29% at VEGFR2 (10 uM, Average).

Take `CC1=Nc2ccc(Cl)cc2S(=O)(=O)N1` [Diazoxide]: the “% Enzyme Activity (relative to DMSO controls), Average” value was 95.10% on CK1d (1 uM, Average) and 97.15% on CK1d (10 uM, Average). For the same compound, the “% Enzyme Activity (relative to DMSO controls), Data 1” value on CK1d (1 uM, replicate Data 1) was found to be 99.58%; at CK1d (10 uM, replicate Data 1), 96.56%. Besides, the “% Enzyme Activity (relative to DMSO controls), Data 2” value is listed as 90.62% on CK1d (1 uM, replicate Data 2) and 97.73% at CK1d (10 uM, replicate Data 2).

For `COc1cccc2c1C(=O)c1c(O)c3c(c(O)c1C2=O)C[C@@](O)(C(=O)CO)C[C@@H]3O[C@H]1C[C@H](N)[C@H](O)[C@H](C)O1` [Doxorubicin], the “% Enzyme Activity (relative to DMSO controls), Average” value at VEGFR2 (1 uM, Average) is 110.51%; on VEGFR2 (10 uM, Average) it was 100.16%. Besides, the “% Enzyme Activity (relative to DMSO controls), Data 1” value is reported as 112.09% at VEGFR2 (1 uM, replicate Data 1) and 99.85% on VEGFR2 (10 uM, replicate Data 1). Further, the “% Enzyme Activity (relative to DMSO controls), Data 2” value on VEGFR2 (1 uM, replicate Data 2) amounted to 108.92%; at VEGFR2 (10 uM, replicate Data 2), 100.47%.

As to `C[C@]12CC[C@@H]3c4ccc(O)cc4CC[C@H]3[C@@H]1CCC2=O` [Estrone], the “% Enzyme Activity (relative to DMSO controls), Average” value on VEGFR2 (1 uM, Average) was found to be 106.40%; at VEGFR2 (10 uM, Average), 104.79%. Moreover, the “% Enzyme Activity (relative to DMSO controls), Data 1” value was 108.92% at VEGFR2 (1 uM, replicate Data 1) and 105.29% on VEGFR2 (10 uM, replicate Data 1). The “% Enzyme Activity (relative to DMSO controls), Data 2” value at VEGFR2 (1 uM, replicate Data 2) is reported as 103.87%; at VEGFR2 (10 uM, replicate Data 2), 104.29%.

With `O=c1[nH]cc(F)c(=O)[nH]1` [Fluorouracil], the “% Enzyme Activity (relative to DMSO controls), Average” value was found to be 104.91% on CK1d (1 uM, Average); 106.01% at CK1d (10 uM, Average); 113.72% on VEGFR2 (1 uM, Average); 105.92% on VEGFR2 (10 uM, Average). Further, the “% Enzyme Activity (relative to DMSO controls), Data 1” value on CK1d (1 uM, replicate Data 1) was found to be 106.12%; at CK1d (10 uM, replicate Data 1), 110.21%; at VEGFR2 (1 uM, replicate Data 1) it was 118.24%; on VEGFR2 (10 uM, replicate Data 1), 109.47%. For the same compound, the “% Enzyme Activity (relative to DMSO controls), Data 2” value at CK1d (1 uM, replicate Data 2) is listed as 103.69%; at CK1d (10 uM, replicate Data 2), 101.8%; at VEGFR2 (1 uM, replicate Data 2), 109.2%; at VEGFR2 (10 uM, replicate Data 2) it was 102.36%.

Consider `CCC1=C(C)CN(C(=O)NCCc2ccc(S(=O)(=O)NC(=O)N[C@H]3CC[C@H](C)CC3)cc2)C1=O` [Glimepiride], for which the “% Enzyme Activity (relative to DMSO controls), Average” value at CK1d (1 uM, Average) came to 106.25%; on CK1d (10 uM, Average) it was 89.28%. In addition, the “% Enzyme Activity (relative to DMSO controls), Data 1” value at CK1d (1 uM, replicate Data 1) is 107.91%; on CK1d (10 uM, replicate Data 1), 92.55%. The “% Enzyme Activity (relative to DMSO controls), Data 2” value at CK1d (1 uM, replicate Data 2) is 104.59%; on CK1d (10 uM, replicate Data 2) it was 86%.

Consider `CC(=O)[C@]1(O)Cc2c(O)c3c(c(O)c2[C@@H](O[C@H]2C[C@H](N)[C@H](O)[C@H](C)O2)C1)C(=O)c1ccccc1C3=O` [Idarubicin], for which the “% Enzyme Activity (relative to DMSO controls), Average” value at VEGFR2 (1 uM, Average) is given as 111.69%; on VEGFR2 (10 uM, Average) it was 106.65%. Besides, the “% Enzyme Activity (relative to DMSO controls), Data 1” value stood at 111.85% on VEGFR2 (1 uM, replicate Data 1) and 105.86% at VEGFR2 (10 uM, replicate Data 1). The “% Enzyme Activity (relative to DMSO controls), Data 2” value at VEGFR2 (1 uM, replicate Data 2) stood at 111.52%; on VEGFR2 (10 uM, replicate Data 2), 107.43%.

As for `CO[C@@]12[C@H](COC(N)=O)C3=C(C(=O)C(C)=C(N)C3=O)N1C[C@@H]1N[C@@H]12` [Mitomycin], the “% Enzyme Activity (relative to DMSO controls), Average” value is recorded as 98.48% at CK1d (1 uM, Average) and 158.59% at CK1d (10 uM, Average). Moreover, the “% Enzyme Activity (relative to DMSO controls), Data 1” value is listed as 100.68% on CK1d (1 uM, replicate Data 1) and 209.38% at CK1d (10 uM, replicate Data 1). In addition, the “% Enzyme Activity (relative to DMSO controls), Data 2” value was found to be 96.28% at CK1d (1 uM, replicate Data 2) and 107.8% at CK1d (10 uM, replicate Data 2).

For `CCCCNc1ccc(C(=O)OCCN(C)C)cc1` [Tetracaine], the “% Enzyme Activity (relative to DMSO controls), Average” value at CK1d (1 uM, Average) stood at 110.04%; on CK1d (10 uM, Average), 118.78%. The “% Enzyme Activity (relative to DMSO controls), Data 1” value was 103.65% on CK1d (1 uM, replicate Data 1) and 119.29% at CK1d (10 uM, replicate Data 1). For the same compound, the “% Enzyme Activity (relative to DMSO controls), Data 2” value on CK1d (1 uM, replicate Data 2) was found to be 116.43%; at CK1d (10 uM, replicate Data 2), 118.26%.

As to `Cc1ccc(C(=O)c2cc(O)c(O)c([N+](=O)[O-])c2)cc1` [Tolcapone, reference compound], the remaining activity at 1 µM at CK1d (setting [1]) turned out to be 91.7%; on CK1d (setting [2]), 91.5%; on CK1d (setting [3]), 91.9%; on CK1d (compound 1μM, relative to DMSO controls, read-out: % Enzyme activity at 1μM), 91.7%. The remaining activity at 10 µM on CK1d (setting [4]) was found to be 35.6%; on CK1d (setting [5]), 33.2%; on CK1d (setting [6]), 38%; on CK1d (compound 10μM, relative to DMSO controls, read-out: % Enzyme activity at 10μM), 35.6%.

Regarding `CCCc1nc(C)c2c(=O)[nH]c(-c3cc(S(=O)(=O)N4CCN(CC)CC4)ccc3OCC)nn12` [Vardenafil], the results for the remaining activity at 1 µM on CK1d (setting [1]), at CK1d (setting [2]) and at CK1d (setting [3]) were 102%, 100% and 104%, respectively. Besides, the remaining activity at 10 µM on CK1d (setting [4]) was determined as 110%; at CK1d (setting [5]) it was 107%; at CK1d (setting [6]) it was 112%.

For `CS(=O)(=O)c1ccc(C(=O)Nc2ccc(Cl)c(-c3ccccn3)c2)c(Cl)c1` [Vismodegib], the remaining activity at 1 µM on VEGFR2 (setting [1]), at VEGFR2 (setting [2]) and on VEGFR2 (setting [3]) was 103% throughout. Further, the remaining activity at 10 µM is 91.1% at VEGFR2 (setting [4]), 97.8% at VEGFR2 (setting [5]) and 84.5% on VEGFR2 (setting [6]).
